From patent US6479499B1
Like-named read-outs stand apart in the source and are kept apart here.

System: platelet aggregation induced by arachidonic acid (AA)
Assay: Antiplatelet assay, arachidonic acid-induced aggregation
Format: cell-based, rabbit
Details: AA 100 μM, 37° C., 1 min preincubation, read-out: IC50, platelet aggregation induced by arachidonic acid (in vitro) (Table 6)
Experimental: c. Antiplatelet assay. Blood, collected from the marginal ear vein of rabbits was mixed with EDTA to a final concentration of 6 mM and centrifuged at 90 g for 10 mm at room temperature to obtain platelet-rich plasma. The latter was further centrifuged at 500 g for 10 mm and the platelets were washed with Tyrode's solution without EDTA. After centrifugation at the same conditions, the platelets were suspended in Tyrode's solution with the following compositions (mM): NaCl (136.8), KCl (2.8), NaNCO3(11.9), MgCl2(1.1), NaH2PO4(0.33), CaCl2(1.0), and glucose (11.2). Platelet numbers were determined with a Coulter Counter (Model ZM) and adjusted to 4.5×10^8 platelets/ml.
Aggregation was measured by the turbidimetric method [O'brien, J. R. J. Clin. Pathol. 1962, 15,452] with a dual-channel Lumi aggregometer (Model 1020, Payton, Canada). All glass ware was siliconized. Test compounds were added one minute before the addition of the aggregation inducer and the platelet suspension was stirred at 900 rpm. The percentage of aggregation was calculated as previously described [Teng, C. M.; Chen, W. Y.; Ko, W. C.; Ouyang, C. Biochem. Biophys. Acta. 1987, 924, 375].

[1] = Oryctolagus cuniculus, Platelet

Molecule	IC50 [1] [µM]	IC50 [µM]
CCOC(=O)COc1nc(-c2ccccc2)nc2ccccc12 [Compound 71, 4-Ethoxycarbonylmethoxy-2-phenylquinazoline]	26.9	
CCOc1nc(-c2cccc(OC)c2)nc2ccccc12 [Compound 75, 4-Ethoxy-2-(3′-methoxyphenyl)quinazoline]	69.3	
Cn1c(-c2ccccc2)nc2ccccc2c1=O [Compound 77, N^3-methyl-2-phenyl-4-quinazolinone]	183	
CCn1c(-c2ccccc2)nc2ccccc2c1=O [Compound 78, N^3-Ethyl-2-phenyl-4-quinazolinone]	184	
COc1ccc2c(c1)c(CC(=O)O)c(C)n2C(=O)c1ccc(Cl)cc1 [Indomethacin]	0.25	
N^3-Ethoxycarbonylmethoxy-2-phenyl-4-quinazolinone [Compound 79]		> 270

Second part, the molecule after the results:

IC50 [1] [µM]	IC50 [µM]	Molecule
30.7		CCOC(=O)CCCOc1nc(-c2ccccc2)nc2ccccc12 [Compound 72, 4-Ethoxycarbonylpropoxy-2-phenylquinazoline]
214		CCOc1nc(-c2ccccc2OC)nc2ccccc12 [Compound 74, 4-Ethoxy-2-(2′-methoxyphenyl)quinazoline]
5.36		CCOc1nc(-c2ccc(OC)cc2)nc2ccccc12 [Compound 76, 4-Ethoxy-2-(4′-methoxyphenyl)quinazoline]
